This passage reports EC50 results from patent US20220089575A1, “FARNESOID X RECEPTOR AGONISTS AND USES THEREOF” (Metacrine, Inc., priority 2017, published 2022).

The experiment concerns the target T1, hFXR (Homo sapiens, UniProt Q96RI1).
T1 construct: expressed in transfected cells; host or cells: CV-1 cells
T1 sequence (Q96RI1 1-486): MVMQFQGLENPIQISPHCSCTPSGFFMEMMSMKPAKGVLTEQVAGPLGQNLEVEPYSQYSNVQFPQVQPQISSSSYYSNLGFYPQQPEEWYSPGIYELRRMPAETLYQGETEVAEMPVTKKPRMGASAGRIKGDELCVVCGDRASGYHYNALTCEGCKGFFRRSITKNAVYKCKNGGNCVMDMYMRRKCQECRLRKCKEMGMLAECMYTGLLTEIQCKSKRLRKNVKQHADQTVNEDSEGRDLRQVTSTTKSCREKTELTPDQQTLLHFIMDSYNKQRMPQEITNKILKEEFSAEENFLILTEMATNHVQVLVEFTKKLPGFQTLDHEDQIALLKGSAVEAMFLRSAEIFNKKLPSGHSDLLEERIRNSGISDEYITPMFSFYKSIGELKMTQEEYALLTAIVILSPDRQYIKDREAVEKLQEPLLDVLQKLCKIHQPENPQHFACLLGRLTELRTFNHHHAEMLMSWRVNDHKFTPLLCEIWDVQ
T1 sequence (P19793 1-462 partner): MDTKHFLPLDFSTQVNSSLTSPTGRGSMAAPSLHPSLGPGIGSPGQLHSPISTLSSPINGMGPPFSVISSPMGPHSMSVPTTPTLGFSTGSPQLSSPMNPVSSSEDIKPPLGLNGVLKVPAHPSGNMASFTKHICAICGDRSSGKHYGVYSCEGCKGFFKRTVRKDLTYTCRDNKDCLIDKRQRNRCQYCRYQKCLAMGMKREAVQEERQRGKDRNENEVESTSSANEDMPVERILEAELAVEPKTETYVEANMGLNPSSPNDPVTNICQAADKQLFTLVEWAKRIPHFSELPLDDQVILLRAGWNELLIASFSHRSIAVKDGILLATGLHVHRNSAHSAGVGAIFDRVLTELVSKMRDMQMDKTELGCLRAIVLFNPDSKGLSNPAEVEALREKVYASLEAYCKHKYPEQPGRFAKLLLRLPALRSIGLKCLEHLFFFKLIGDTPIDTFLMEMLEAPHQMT
The experiment is described as follows: In Vitro FXR Assay (TK): TK-ECRE-luc reporter in transfected CV-1 cells. Format: cell-based. The note with it: 18 hrs, luminescence, maximum efficacy of <25% of the Fexarmine control classified as '+'. The gist of the method:
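Cells are seeded in charcoal double-stripped FBS medium, transfected overnight with FXR/RXR expression and ECRE-driven luciferase reporter plasmids, then treated with serially diluted compounds for 18 h. Lysates are measured for luciferase light output.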

In the case of `CN(C)c1ccc([C@H]2CC[C@H](CN(c3cccc(-c4cnn(C5CC5)c4)c3)C(=O)[C@H]3CC[C@H](CC(=O)O)CC3)CC2)cn1` [Compound 20.12, 2-(trans-4-((3-(1-Cyclopropyl-1H-pyrazol-4-yl)phenyl)((trans-4-(6-(dimethylamino)pyridin-3-yl)cyclohexyl)methyl)carbamoyl)cyclohexyl)acetic acid], the EC50 was ≤ 250 nM.
For the compound `COc1ccc([C@H]2CC[C@H](CN(c3cc(-c4coc(C5CC5)n4)ccn3)C(=O)[C@H]3CC[C@H](OC(=O)NC[C@H](O)CO)CC3)CC2)nc1C` [Compound 6.66, trans-4-((4-(2-Cyclopropyloxazol-4-yl)pyridine-2-yl)((trans-4-(5-methoxy-6-methylpyridin-2-yl)cyclohexyl)methyl)carbamoyl)cyclohexyl ((S)-2,3-dihydroxypropyl)carbamate], the EC50 lay within 250 to 1000 nM.
Consider `CNCC(=O)N[C@H]1CC[C@H](C(=O)N(C[C@H]2CC[C@H](c3ccc(OC)c(C)c3)CC2)c2cccc(-c3cnc(C4CC4)s3)c2)CC1` [Compound 31.08, trans-N-(3-(2-Cyclopropylthiazol-5-yl)phenyl)-N-((trans-4-(4-methoxy-3-methylphenyl)cyclohexyl)methyl)-4-(2-(methylamino)acetamido) cyclohexanecarboxamide], for which the EC50 is ≤ 250 nM.
Regarding `COc1ccc([C@H]2CC[C@H](CN(c3cccc(-c4cnn(C(C)C)c4)c3)C(=O)[C@H]3CC[C@H](NCC(=O)O)CC3)CC2)cc1C` [Compound 29, 2-((trans-4-((3-(1-Isopropyl-1H-pyrazol-4-yl)phenyl)((trans-4-(4-methoxy-3-methylphenyl)cyclohexyl)methyl)carbamoyl)cyclohexyl)amino)acetic Acid], the EC50 is ≥ 1000 nM.
`COc1ccc([C@H]2CC[C@H](CN(c3cc(-c4coc(C(C)C)n4)ccn3)C(=O)[C@H]3CC[C@H](OC(=O)N4CCN(C)CC4)CC3)CC2)nc1C` [Compound 6.77, trans-4-((4-(2-Isopropyloxazol-4-yl)pyridine-2-yl)((trans-4-(5-methoxy-6-methylpyridin-2-yl)cyclohexyl)methyl)carbamoyl)cyclohexyl 4-methylpiperazine-1-carboxylate]: the EC50 is ≤ 250 nM.
As for `COc1ccc([C@H]2CC[C@H](CN(c3cc(-c4coc(C5CC5)n4)ccn3)C(=O)[C@H]3CC[C@H](OC(=O)N4CC(CN(C)C)C4)CC3)CC2)nc1C` [Compound 7.106, trans-4-((4-(2-Cyclopropyloxazol-4-yl)pyridin-2-yl)((trans-4-(5-methoxy-6-methylpyridin-2-yl)cyclohexyl)methyl)carbamoyl)cyclohexyl 3-((dimethylamino)methyl)azetidine-1-carboxylate], the EC50 is ≤ 250 nM.
In the case of `COc1ccc([C@H]2CC[C@H](CN(c3cccc(-c4cnn(C5CC5)c4)c3)C(=O)[C@H]3CC[C@H](C(=O)OC)CC3)CC2)nc1C` [Compound 18.19, trans-Methyl 4-((3-(1-cyclopropyl-1H-pyrazol-4-yl)phenyl)((trans-4-(5-methoxy-6-methylpyridin-2-yl)cyclohexyl)methyl)carbamoyl) cyclohexanecarboxylate], the EC50 was ≤ 250 nM.
With `COc1ccc([C@H]2CC[C@H](CN(c3cc(-c4cnn(C5CC5)c4)ccn3)C(=O)[C@H]3CC[C@H](OC(=O)NCCO)CC3)CC2)cc1C#N` [Compound 6.21, trans-4-(((trans-4-(3-Cyano-4-methoxyphenyl)cyclohexyl)methyl)(4-(1-cyclopropyl-1H-pyrazol-4-yl)pyridin-2-yl)carbamoyl)cyclohexyl (2-hydroxyethyl)carbamate] the figure was ≤ 250 nM; with `COc1ccc([C@H]2CC[C@H](CN(c3cccc(-c4cnn(C5CC5)c4)c3)C(=O)[C@H]3CC[C@H](OC(=O)NCC(=O)O)CC3)CC2)cc1C` [Compound 7.18, 2-((((trans-4-((3-(1-Cyclopropyl-1H-pyrazol-4-yl)phenyl)((trans-4-(4-methoxy-3-methylphenyl)cyclohexyl)methyl)carbamoyl)cyclohexyl)oxy)carbonyl)amino)acetic acid], ≤ 250 nM.
Take `COc1ccc([C@H]2CC[C@H](CN(c3cc(-c4cnn(C(C)C)c4)ccn3)C(=O)[C@H]3CC[C@H](OC(=O)N4CCOCC4)CC3)CC2)nc1C` [Compound 6.40, trans-4-((4-(1-Isopropyl-1H-pyrazol-4-yl)pyridin-2-yl)((trans-4-(5-methoxy-6-methylpyridin-2-yl)cyclohexyl)methyl)carbamoyl)cyclohexyl morpholine-4-carboxylate]: the concentration giving a half-maximal response (EC50) is ≤ 250 nM.
To `CN(C)c1ccc([C@H]2CC[C@H](CN(c3cccc(-c4coc(C5CC5)n4)c3)C(=O)[C@H]3CC[C@H](OC(=O)N4CC(O)C4)CC3)CC2)cn1` [Compound 7.63, trans-4-((3-(2-Cyclopropyloxazol-4-yl)phenyl)((trans-4-(6-(dimethylamino)pyridine-3-yl)cyclohexyl)methyl)carbamoyl)cyclohexyl 3-hydroxyazetidine-1-carboxylate] belongs ≤ 250 nM; to `COc1ccc([C@H]2CC[C@H](CN(c3cc(-c4coc(C5CC5)n4)ccn3)C(=O)[C@H]3CC[C@H](OC(=O)N[C@@H]4CCCN(C)C4)CC3)CC2)nc1C` [Compound 6.80, trans-4-((4-(2-Cyclopropyloxazol-4-yl)pyridin-2-yl)((trans-4-(5-methoxy-6-methylpyridin-2-yl)cyclohexyl)methyl)carbamoyl)cyclohexyl ((R)-1-methylpiperidin-3-yl)carbamate], ≤ 250 nM; to `CN(C)c1ccc(C23CCC(CN(c4cccc(-c5cnc(C6CC6)s5)c4)C(=O)[C@H]4CC[C@H](C(=O)O)CC4)(CC2)CC3)cn1` [Compound 17.06, trans-4-((3-(2-Cyclopropylthiazol-5-yl)phenyl)((4-(6-(dimethylamino)pyridin-3-yl)bicyclo[2.2.2]octan-1-yl)methyl)carbamoyl) cyclohexanecarboxylic acid], ≤ 250 nM.
As for `COCCNC(=O)O[C@H]1CC[C@H](C(=O)N(C[C@H]2CC[C@H](c3ccc(OC)c(C)c3)CC2)c2cccc(-c3cnn(C4CC4)c3)c2)CC1` [Compound 6.10, trans-4-((3-(1-Cyclopropyl-1H-pyrazol-4-yl)phenyl)((trans-4-(4-methoxy-3-methylphenyl)cyclohexyl)methyl)carbamoyl)cyclohexyl (2-methoxyethyl) carbamate], the EC50 is ≤ 250 nM.
For `COc1ccc([C@H]2CC[C@H](CN(c3cc(-c4coc(C5CC5)n4)ccn3)C(=O)[C@H]3CC[C@H](CNC(=O)C4CC(N(C)C)C4)CC3)CC2)nc1C` (stereo partly drawn) [Compound 30.05, trans-N-(4-(2-Cyclopropyloxazol-4-yl)pyridin-2-yl)-4-((3-(dimethylamino)cyclobutanecarboxamido)methyl)-N-((trans-4-(5-methoxy-6-methylpyridin-2-yl)cyclohexyl)methyl) cyclohexanecarboxamide], the EC50 is ≥ 1000 nM.
On to `CNC(=O)O[C@H]1CC[C@H](C(=O)N(CC23CCC(c4ccc(N(C)C)nc4)(CC2)CC3)c2cccc(-c3cnc(C4CC4)s3)c2)CC1` [Compound 1.02, 4-((3-(2-Cyclopropylthiazol-5-yl)phenyl)((4-(6-(dimethylamino)pyridin-3-yl)bicyclo[2.2.2]octan-1-yl)methyl)carbamoyl)cyclohexyl trans-methylcarbamate], for which the concentration giving a half-maximal response (EC50) is ≤ 250 nM.
To `COc1ccc([C@H]2CC[C@H](CN(c3cc(-c4coc(C5CC5)n4)ccn3)C(=O)[C@H]3CC[C@H](NC(=O)C4CC(OC)C4)CC3)CC2)nc1C` (stereo partly drawn) [Compound 30.03, trans-N-(4-(2-Cyclopropyloxazol-4-yl)pyridin-2-yl)-N-((trans-4-(5-methoxy-6-methylpyridin-2-yl)cyclohexyl)methyl)-4-(3-methoxycyclobutanecarboxamido) cyclohexanecarboxamide] belongs ≤ 250 nM.
As to `COc1ccc([C@H]2CC[C@H](CN(c3cccc(-c4cnn(C(C)C)c4)c3)C(=O)[C@H]3CC[C@H](OC(=O)N4CC(OC)C4)CC3)CC2)nc1C` [Compound 7.52, trans-4-((3-(1-Isopropyl-1H-pyrazol-4-yl)phenyl)((trans-4-(5-methoxy-6-methylpyridin-2-yl)cyclohexyl)methyl)carbamoyl)cyclohexyl 3-methoxyazetidine-1-carboxylate], the EC50 was ≤ 250 nM.
Turning to `CCCCOC(=O)[C@H]1CC[C@H](C(=O)N(C[C@H]2CC[C@H](c3ccc(OC)c(C)c3)CC2)c2cccc(-c3cnn(C4CC4)c3)c2)CC1` [Compound 22.02, trans-Butyl 4-((3-(1-cyclopropyl-1H-pyrazol-4-yl)phenyl)((trans-4-(4-methoxy-3-methylphenyl)cyclohexyl)methyl)carbamoyl) cyclohexanecarboxylate], the EC50 is ≤ 250 nM.

What is called EC50 is the concentration that produces a half-maximal response.
